# Measurements: patent US10435361B2, “Kinase inhibitors” (Topivert Pharma Limited, priority 2013, dated 2019)
# Tests used:
# Assay type in all cases: cell-based
# PBMCs [1] = test: IL-2 and IFN gamma release in CD3/CD28 stimulated PBMC cells; details: Homo sapiens, assay (c)
# Protocol: PBMCs from healthy subjects are separated from whole blood using a density gradient (Lymphoprep, Axis-Shield Healthcare). Cells are added to a 96 well plate pre-coated with a mixture of CD3/CD28 monoclonal antibodies (0.3 μg/mL eBioscience and 3 μg/mL BD Pharmingen respectively). Compound at the desired concentration is then added to the wells and the plate left for 3 days under normal tissue culture conditions. […] The IC50 is determined from the dose response curve.
# PBMCs [2] = test: Cell mitosis assay in PBMCs; details: Homo sapiens, PBMC, 5 μg/mL
# Protocol: Peripheral blood mononucleocytes (PBMCs) from healthy subjects are separated from whole blood (Quintiles, London, UK) using a density gradient (Histopaque®-1077, Sigma-Aldrich, Poole, UK). The PBMCs (3 million cells per sample) are subsequently treated with 2% PHA (phytohaemagglutinin, Sigma-Aldrich, Poole, UK) for 48 hr, followed by a 20 hr exposure to varying concentrations of test compounds. At 2 hr before collection, PBMCs are treated with demecolcine (0.1 μg/mL; Invitrogen, Paisley, UK) to arrest cells in metaphase. To observe mitotic cells, PBMCs are permeabilised and fixed by adding Intraprep (50 μL; Beckman Coulter, France), and stained with anti-phospho-histone 3 (0.26 ng/L; #9701; Cell Signalling, Danvers, Mass.) and propidium iodide (1 mg/mL; Sigma-Aldrich, Poole, UK) as previously described (Muehlbauer P. A. and Schuler M. J., Mutation Research, 2003, 537:117-130). Fluorescence is observed using an ATTUNE flow cytometer (Invitrogen, Paisley, UK), gating for lymphocytes.
# PBMCs [3] = test: LPS-induced TNFα/IL-8 release in PBMC cells; details: Homo sapiens, assay (b), read-out: IC50 Values for Inhibition of Cytokine Release PBMCs IL-8
# How it was run: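 Healthy-donor PBMCs isolated by density gradient were pretreated with compound for 2 h, then stimulated with 1 ng/mL LPS (E. coli 0111:B4) for 24 h at 37° C., 5% CO2. IL-8 and TNFα in supernatants measured by sandwich ELISA.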
# [4] = read-out: IC50 Values for Inhibition of Cytokine Release PBMCs IFNγ
# [5] = read-out: IC50 Values for Inhibition of Cytokine Release PBMCs IL-2
SMILES,IC50 (PBMCs [1]; [4]),IC50 (PBMCs [1]; [5]),inhibition at 5 µg/mL (PBMCs [2]),IC50 (PBMCs [3])
"C#Cc1cc(Nc2nccc(Oc3ccc(NC(=O)Nc4cc(C(C)(C)C)cc(NS(C)(=O)=O)c4OC)c4ccccc34)n2)cc(C(=O)NCCN2CCOCC2)c1 [Example 1, 3-((4-((4-(3-(5-(tert-Butyl)-2-methoxy-3-(methylsulfonamido)phenyl)ureido)naphthalen-1-yl)oxy)pyrimidin-2-yl)amino)-5-ethynyl-N-(2-morpholinoethyl)benzamide]",10.4 nM,112 nM,22.1%,1.4 nM
"COc1cc(Nc2cc(Oc3ccc(NC(=O)Nc4cc(C(C)(C)C)cc(NS(C)(=O)=O)c4OC)c4ccccc34)ccn2)cc(C(=O)NCC(=O)N2CCOCC2)c1 [85(a), 3-[[4-[[4-[[5-tert-Butyl-3-(methanesulfonamido)-2-methoxyphenyl]-carbamoylamino]-1-naphthyl]oxy]-2-pyridyl]amino]-5-methoxy-N-(2-morpholino-2-oxo-ethyl)benzamide]",11.8 nM,53.8 nM,46.3%,0.8 nM
"COc1cc(Nc2nccc(Oc3ccc(NC(=O)Nc4cc(C(C)(C)C)cc(NS(C)(=O)=O)c4OC)c4ccccc34)n2)cc(C(=O)NCCN2CCOCC2)c1 [Example 6, 3-((4-((4-(3-(5-(tert-Butyl)-2-methoxy-3-(methylsulfonamido)phenyl)ureido)naphthalen-1-yl)oxy)pyrimidin-2-yl)amino)-5-methoxy-N-(2-morpholinoethyl)benzamide]",9.3 nM,89.9 nM,41.7%,0.8 nM
"COCCOCCOCCOc1cc(Nc2nccc(Oc3ccc(NC(=O)Nc4cc(C(C)(C)C)cc(C(=O)NCCN(C)C)c4OC)c4ccccc34)n2)cc(OC)c1 [Example 46, 5-(tert-Butyl)-N-(2-(dimethylamino)ethyl)-2-methoxy-3-(3-(4-((2-((3-methoxy-5-(2-(2-(2-methoxyethoxy)ethoxy)ethoxy)phenyl)amino)pyrimidin-4-yl)oxy)naphthalen-1-yl)ureido)-benzamide]",2 nM,,67.1%,0.9 nM
"COCCOCCOCCOc1cc(Nc2nccc(Oc3ccc(NC(=O)Nc4cc(NS(C)(=O)=O)cc(C(C)(C)C)c4)c4ccccc34)n2)cc(OC)c1 [Example 24, N-(3-(tert-Butyl)-5-(3-(4-((2-((3-methoxy-5-(2-(2-(2-methoxyethoxy)ethoxy)ethoxy)-phenyl)amino)pyrimidin-4-yl)oxy)naphthalen-1-yl)ureido)phenyl)methanesulfonamide]",10.7 nM,24.9 nM,22.5%,1.9 nM
"COc1cccc(Nc2cc(Oc3ccc(NC(=O)Nc4cc(C(C)(C)C)cc(C(=O)NC5COC5)c4OC)c4ccccc34)ccn2)c1 [Example 81, 5-(tert-Butyl)-2-methoxy-3-(3-(4-((2-((3-methoxyphenyl)amino)pyridin-4-yl)oxy)naphthalen-1-yl)ureido)-N-(oxetan-3-yl)benzamide]",4 nM,98.8 nM,58.1%,2.7 nM
"CNC(=O)c1cc(C(C)(C)C)cc(NC(=O)Nc2ccc(Oc3ccnc(Nc4cc(CO)cc(OC)c4)c3)c3ccccc23)c1OC [84(h), 5-tert-Butyl-3-[[4-[[2-[3-(hydroxymethyl)-5-methoxyanilino]-4-pyridyl]oxy]-1-naphthyl]carbamoylamino]-2-methoxy-N-methyl-benzamide]",1.7 nM,51.3 nM,87%,0.7 nM
"C#Cc1cc(Nc2cc(Oc3ccc(NC(=O)Nc4cc(C(C)(C)C)cc(NS(C)(=O)=O)c4OC)c4ccccc34)ccn2)cc(C(=O)NCCCN2CCOCC2)c1 [85(d), 3-[[4-[[4-[[5-tert-Butyl-3-(methanesulfonamido)-2-methoxyphenyl]-carbamoylamino]-1-naphthyl]oxy]-2-pyridyl]amino]-5-ethynyl-N-(3-morpholinopropyl)-benzamide]",15.4 nM,94.3 nM,33.2%,2.1 nM
"COc1cc(Nc2cc(Oc3ccc(NC(=O)Nc4cc(C(C)(C)C)cc(C(N)=O)c4OC)c4ccccc34)ccn2)cc(C(=O)NCCN2CCOCC2)c1 [Example 47, 3-((4-((4-(3-(5-(tert-Butyl)-3-carbamoyl-2-methoxyphenyl)ureido)naphthalen-1-yl)oxy)pyridin-2-yl)amino)-5-methoxy-N-(2-morpholinoethyl)benzamide]",7.3 nM,102 nM,59.1%,1.6 nM
"C#Cc1cc(Nc2cc(Oc3ccc(NC(=O)Nc4cc(C(C)(C)C)cc(NS(C)(=O)=O)c4OC)c4ccccc34)ccn2)cc(C(=O)NCCOCCOCCOC)c1 [Example 54, 3-((4-((4-(3-(5-(tert-Butyl)-2-methoxy-3-(methylsulfonamido)phenyl)ureido)naphthalen-1-yl)oxy)pyridin-2-yl)amino)-5-ethynyl-N-(2-(2-(2-methoxyethoxy)ethoxy)ethyl)benzamide]",33.3 nM,354 nM,37.8%,1.6 nM
"CNC(=O)c1cc(C(C)(C)C)cc(NC(=O)Nc2ccc(Oc3ccnc(Nc4cc(OC)cc(OCCOCCOCCOC)c4)n3)c3ccccc23)c1OC [Example 13, 5-(tert-Butyl)-2-methoxy-3-(3-(4-((2-((3-methoxy-5-(2-(2-(2-methoxyethoxy)ethoxy)-ethoxy)phenyl)amino)pyrimidin-4-yl)oxy)naphthalen-1-yl)ureido)-N-methylbenzamide]",4.6 nM,57.4 nM,46.1%,1.3 nM
"C#Cc1cc(Nc2cc(Oc3ccc(NC(=O)Nc4cc(C(C)(C)C)cc(NS(C)(=O)=O)c4OC)c4ccccc34)ccn2)cc(C(=O)N[C@@H](C)COCCOCCOC)c1 [Example 67, (S)-3-((4-((4-(3-(5-(tert-Butyl)-2-methoxy-3-(methylsulfonamido)phenyl)ureido)-naphthalen-1-yl)oxy)pyridin-2-yl)amino)-5-ethynyl-N-(1-(2-(2-methoxyethoxy)ethoxy)-propan-2-yl)benzamide]",39.5 nM,200 nM,35.6%,2.7 nM
"COc1cc(CO)cc(Nc2cc(Oc3ccc(NC(=O)Nc4cc(C(C)(C)C)cc(C(N)=O)c4OC)c4ccccc34)ccn2)c1 [84(g), 5-tert-Butyl-3-[[4-[[2-[3-(hydroxymethyl)-5-methoxyanilino]-4-pyridyl]oxy]-1-naphthyl]carbamoylamino]-2-methoxybenzamide]",1.3 nM,43.5 nM,84.6%,0.7 nM
"C#Cc1cc(Nc2cc(Oc3ccc(NC(=O)Nc4cc(C(C)(C)C)cc(CO)c4OC)c4ccccc34)ccn2)cc(C(=O)NCCOCCOCCOC)c1 [85(b), 3-[[4-[[4-[[5-tert-Butyl-3-(hydroxymethyl)-2-methoxyphenyl]-carbamoylamino]-1-naphthyl]oxy]-2-pyridyl]amino]-5-ethynyl-N-[2-[2-(2-methoxyethoxy)ethoxy]ethyl]benzamide]",16.2 nM,123 nM,25.3%,1.5 nM
"COCCOCCOCCOc1cc(Nc2nccc(Oc3ccc(NC(=O)Nc4cc(C(C)(C)C)cc(C(=O)NCCO)c4OC)c4ccccc34)n2)cc(OC)c1 [Example 35, 5-(tert-Butyl)-N-(2-hydroxyethyl)-2-methoxy-3-(3-(4-((2-((3-methoxy-5-(2-(2-(2-methoxy-ethoxy)ethoxy)ethoxy)phenyl)amino)pyrimidin-4-yl)oxy)naphthalen-1-yl)ureido)-benzamide]",3.5 nM,51 nM,41.1%,1.4 nM
"COCCOCCOCCOc1cc(Nc2nccc(Oc3ccc(NC(=O)Nc4cc(C(C)(C)C)cc(C(N)=O)c4OC)c4ccccc34)n2)cc(OC)c1 [Example 20, 5-(tert-Butyl)-2-methoxy-3-(3-(4-((2-((3-methoxy-5-(2-(2-(2-methoxyethoxy)ethoxy)-ethoxy)phenyl)amino)pyrimidin-4-yl)oxy)naphthalen-1-yl)ureido)benzamide]",9 nM,84.3 nM,44.3%,1.1 nM
"C#Cc1cc(Nc2nccc(Oc3ccc(NC(=O)Nc4cc(F)cc(N5CCOCC5)c4)c4ccccc34)n2)cc(C(=O)NCCN2CCOCC2)c1 [Example 2, 3-Ethynyl-5-((4-((4-(3-(3-fluoro-5-morpholinophenyl)ureido)naphthalen-1-yl)oxy)-pyrimidin-2-yl)amino)-N-(2-morpholinoethyl)benzamide]",35.7 nM,,4%,142 nM
